Test results as given in paper PMC11685595, “Measuring plant cysteine oxidase interactions with substrates using intrinsic tryptophan fluorescence” (Scientific Reports, 2024).
Peptide text beside a SMILES is read from it.

Tests used:
AtPCO5.Ni(II) = molecular target: T1, AtPCO5.Ni(II) (Arabidopsis thaliana, UniProt Q9LXT4); assay: Plate-based intrinsic Trp fluorescence quenching binding assay, AtPCO5.Ni(II); conditions: 8 µM AtPCO5.Ni(II) (enzyme:metal 1:2), 0-750 µM peptide, anaerobic, 10 min, 25 °C, 50 mM Tris pH 7.5, 0.4 M NaCl, λex/λem 280/350 nm; ± Std. Error of fit, n = 3
T1 construct: His6 (cleaved yes); made in house
T1 sequence (Q9LXT4 whole entry): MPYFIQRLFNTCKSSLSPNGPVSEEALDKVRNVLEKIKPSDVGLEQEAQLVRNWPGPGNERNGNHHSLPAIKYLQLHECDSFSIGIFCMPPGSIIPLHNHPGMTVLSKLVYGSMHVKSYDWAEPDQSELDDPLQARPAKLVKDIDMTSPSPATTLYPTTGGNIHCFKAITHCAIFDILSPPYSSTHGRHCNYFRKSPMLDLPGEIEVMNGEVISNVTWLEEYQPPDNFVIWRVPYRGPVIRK
Protocol: (§1) Following affinity purification, the His6-tag was cleaved using TEV protease and the cleaved tag was removed using a HisTrap HP column (GE Healthcare). To remove the active site metal which co-purifies with PCO enzymes, concentrated protein fractions were dialysed into 50 mM Tris (pH 7.5), 0.4 M NaCl, 100 mM EDTA and 10 mM 1,10-Phenanthroline followed by dialysis into 50 mM Tris (pH 7.5), 0.4 M NaCl and 0.1% (w/v) Chelex® 100 resin to remove excess EDTA and 1,10-Phenanthroline. Dialysed protein was then purified with a HiLoad 26/600 Superdex 75 prep grade size exclusion column (GE Healthcare) equilibrated with 50 mM Tris (pH 7.5) and 0.4 M NaCl (herein termed assay buffer). Protein purity was assessed with SDS-PAGE. To check that Fe(II) was removed, activity assays of metal-removed protein were conducted as described previously.
(§2) Metal-removed AtPCO4/5 was incubated with Ni(II) (NiCl2.6H2O, Alfa Aesar) at enzyme:metal, 1:2 ratio and diluted to the desired volume in assay buffer to a final enzyme concentration of 8 µM, termed the enzyme master mix.

AtPCO4.Ni(II) = molecular target: T2, AtPCO4.Ni(II) (Arabidopsis thaliana, UniProt Q9SJI9); assay: Plate-based intrinsic Trp fluorescence quenching binding assay, AtPCO4.Ni(II); conditions: 8 µM AtPCO4.Ni(II) (enzyme:metal 1:2), 0-750 µM peptide, anaerobic, 10 min, 25 °C, 50 mM Tris pH 7.5, 0.4 M NaCl, λex/λem 280/350 nm; ± Std. Error of fit, n = 3
T2 construct: His6 (cleaved yes); made in house
Protocol: as §1, §2

Kd (AtPCO5.Ni(II)): 223 ± 10.3 µM | Kd (AtPCO4.Ni(II)): 298 ± 37.7 µM
SMILES: CC[C@H](C)[C@H](NC(=O)[C@H](C)NC(=O)CNC(=O)CNC(=O)[C@@H](N)CS)C(=O)N[C@@H](CC(C)C)C(=O)N[C@@H](CO)C(=O)N[C@@H](CC(=O)O)C(=O)N[C@H](C(=O)N[C@H](C(=O)N[C@@H](C)C(=O)N1CCC[C@H]1C(=O)N[C@@H](CO)C(=O)N[C@@H](C)C(=O)O)[C@@H](C)CC)[C@@H](C)CC [HRE1_2-15] (H-CGGAILSDIIAPSA-OH)
